# Laboratory results from patent publication US6420558B1, “Aminopiperidine derivates as integrin αvβ3 antagonists” (Meiji Seika Kaisha, Ltd., priority 1998, dated 2002).
# pIC50: −log10 of the molar value.
# Experiments:
# [1] = target: T1, integrin α5β1 (fibronectin receptor purified from the human placenta) (Homo sapiens, UniProt P05556+P08648); experiment: α5β1 binding assay (fibronectin-fibronectin receptor binding assay); conditions: fibronectin binding to human placenta fibronectin receptor; read-out: α5β1 Binding inhibitory activity
# T1 construct: a fibronectin receptor (protein content: 52.1 μg/ml) purified from the human placenta; from tissue; host or cells: human placenta
# T1 sequence (P08648 42-894 limits assumed): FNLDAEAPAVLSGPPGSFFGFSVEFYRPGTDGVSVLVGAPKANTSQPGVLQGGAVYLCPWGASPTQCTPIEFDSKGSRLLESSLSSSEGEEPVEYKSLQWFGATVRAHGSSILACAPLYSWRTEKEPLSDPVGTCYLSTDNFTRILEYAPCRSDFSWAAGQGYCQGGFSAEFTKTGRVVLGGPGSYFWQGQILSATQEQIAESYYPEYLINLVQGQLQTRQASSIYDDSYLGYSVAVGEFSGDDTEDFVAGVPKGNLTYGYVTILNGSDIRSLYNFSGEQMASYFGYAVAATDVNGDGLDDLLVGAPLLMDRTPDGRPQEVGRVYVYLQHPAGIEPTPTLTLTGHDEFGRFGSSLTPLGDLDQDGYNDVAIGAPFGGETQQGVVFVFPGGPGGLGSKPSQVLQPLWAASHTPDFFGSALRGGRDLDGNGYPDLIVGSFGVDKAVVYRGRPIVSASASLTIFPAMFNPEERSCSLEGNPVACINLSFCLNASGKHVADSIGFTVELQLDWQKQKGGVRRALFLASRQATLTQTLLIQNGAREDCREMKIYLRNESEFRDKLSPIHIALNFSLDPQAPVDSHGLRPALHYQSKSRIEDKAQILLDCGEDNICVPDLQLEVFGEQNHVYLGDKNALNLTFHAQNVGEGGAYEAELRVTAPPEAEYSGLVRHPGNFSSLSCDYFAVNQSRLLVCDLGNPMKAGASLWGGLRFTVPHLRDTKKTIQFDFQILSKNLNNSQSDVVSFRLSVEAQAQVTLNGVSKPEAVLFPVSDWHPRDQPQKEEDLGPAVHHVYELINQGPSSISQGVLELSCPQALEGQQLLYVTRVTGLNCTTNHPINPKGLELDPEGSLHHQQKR
# T1 sequence (P08648 895-1049 limits assumed): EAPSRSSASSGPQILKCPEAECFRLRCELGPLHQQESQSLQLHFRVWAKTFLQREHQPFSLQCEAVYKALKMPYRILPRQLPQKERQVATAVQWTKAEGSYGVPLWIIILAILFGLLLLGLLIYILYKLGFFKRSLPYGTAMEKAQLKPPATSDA
# T1 sequence (P05556 21-798): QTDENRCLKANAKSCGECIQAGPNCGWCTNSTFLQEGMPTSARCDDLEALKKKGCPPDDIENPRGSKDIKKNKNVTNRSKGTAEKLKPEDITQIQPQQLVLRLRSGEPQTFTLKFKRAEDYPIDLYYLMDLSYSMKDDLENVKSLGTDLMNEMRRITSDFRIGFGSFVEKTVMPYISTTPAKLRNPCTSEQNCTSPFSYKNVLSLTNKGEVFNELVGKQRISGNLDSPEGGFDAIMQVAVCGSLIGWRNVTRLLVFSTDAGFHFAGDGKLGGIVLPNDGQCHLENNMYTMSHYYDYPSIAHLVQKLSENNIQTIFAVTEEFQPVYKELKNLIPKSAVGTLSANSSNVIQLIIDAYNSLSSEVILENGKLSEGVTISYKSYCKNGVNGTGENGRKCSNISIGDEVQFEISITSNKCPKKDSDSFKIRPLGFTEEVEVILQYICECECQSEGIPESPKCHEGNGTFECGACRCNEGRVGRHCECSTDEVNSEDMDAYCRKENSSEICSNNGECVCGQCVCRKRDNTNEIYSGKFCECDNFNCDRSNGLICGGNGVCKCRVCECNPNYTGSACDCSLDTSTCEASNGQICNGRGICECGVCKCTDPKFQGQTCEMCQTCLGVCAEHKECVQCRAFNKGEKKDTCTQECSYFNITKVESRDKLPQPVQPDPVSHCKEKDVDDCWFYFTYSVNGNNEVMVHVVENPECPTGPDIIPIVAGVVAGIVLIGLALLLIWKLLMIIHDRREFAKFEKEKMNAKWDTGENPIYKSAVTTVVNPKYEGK
# Procedure: (§1) Integrin α5β1 antagonistic activity (lethality) was measured for the compounds according to the present invention in a fibronectin-fibronectin receptor binding assay system in accordance with the method of Kouns et al. (W. C. Kouns, D. Kirchhofer, P. Hadvary, A. Edenhofer, T. Weller, G. Pfenninger, H. R. Baumgartner, L. K. Jennings, and B. Steiner, Blood, 80, 2539-2547 (1992)).
# Specifically, a fibronectin receptor (protein content: 52.1 μg/ml) purified from the human placenta by the method of Pytela et al. (R. Pytela, M. D. Pierschbacher, S. Argraves, S. Suzuki, and E. Ruoslahti, Method in Enzymology, 144, 475-489 (1987)) was diluted 25 times with TBS (20 mM Tris-HCl, 150 mM NaCl, 1 mM CaCl2, 1 mM MgCl2, pH 7.4), and distributed and coated on wells (50 μl/well) of a plate (Maxisorp, Nunc, 96 well Immuno Plate). The plate was then allowed to stand at 4° C. for one day, washed twice with TBS (200 μl/well), and then subjected to blocking with TBS (150 μl/well) containing 3% skim milk (DIFCO) at 4° C. overnight. After washing twice with TBS (200 μl/well) containing 0.05% Tween-20 and then washing twice with TBS (200 μl/well), purification was carried out according to the method of E. Engvall et al. (E. Engvall, E. Ruoslahti, and E. J. Miller, J. Exp. Med., 147, 1584-1595 (1978)), and 50 […] of fibronectin adjusted to 0.2 μg/ml by the addition of TBS (TBS-Tween) containing 0.01% Tween-20 was mixed with 50 μl of each test compound adjusted to each concentration in the wells, and a reaction was allowed to proceed at room temperature for 3 hr. After the completion of the reaction, the wells were washed five times with TBS-Tween. A solution prepared by diluting a peroxidase-labeled fibronectin antibody (CAPPEL) 500 times with TBS-Tween was added in an amount of 50 μl per well, and a reaction was allowed to proceed at room temperature for 1.5 hr. After washing five times with TBS-Tween (200 μl/well), ABTS (SIGMA) adjusted to 1 mg/ml by the addition of a ten-fold diluted POD-buffer (ZYMED) was added in an amount of 50 μl/well, and a reaction was allowed to proceed for 5 to 10 min. A 0.1 M citric acid buffer (pH 4.3) containing 0.05% NaN3 was added in an amount of 50 μl/well to stop the reaction, followed by the measurement of the absorbance at 415 nm with a microplate reader (MTP 32, Corona Electric) (reference: 675 nm). The total binding was defined as the absorbance after a reaction using 50 μl of TBS-Tween instead of the test compound, and the non-specific binding (100% inhibition) was defined as the absorbance after a reaction using 50 μl of TBS-Tween containing 2×10^−3 M RGDS. The inhibition was calculated by the following equation: [formula]
# (§2) IC50 was determined from a primary regression line of the logarithm of each concentration of the test compound and the logarithm of (100−inhibition)/inhibition.
# GP IIb/IIIa = GP IIb/IIIa (Homo sapiens, UniProt P05106+P08514); experiment: GP IIb/IIIa antagonistic activity (method of Pharmacological Test 2 in WO 94/21599); format: binding
# Chain of GP IIb/IIIa (P08514 32-887 limits assumed): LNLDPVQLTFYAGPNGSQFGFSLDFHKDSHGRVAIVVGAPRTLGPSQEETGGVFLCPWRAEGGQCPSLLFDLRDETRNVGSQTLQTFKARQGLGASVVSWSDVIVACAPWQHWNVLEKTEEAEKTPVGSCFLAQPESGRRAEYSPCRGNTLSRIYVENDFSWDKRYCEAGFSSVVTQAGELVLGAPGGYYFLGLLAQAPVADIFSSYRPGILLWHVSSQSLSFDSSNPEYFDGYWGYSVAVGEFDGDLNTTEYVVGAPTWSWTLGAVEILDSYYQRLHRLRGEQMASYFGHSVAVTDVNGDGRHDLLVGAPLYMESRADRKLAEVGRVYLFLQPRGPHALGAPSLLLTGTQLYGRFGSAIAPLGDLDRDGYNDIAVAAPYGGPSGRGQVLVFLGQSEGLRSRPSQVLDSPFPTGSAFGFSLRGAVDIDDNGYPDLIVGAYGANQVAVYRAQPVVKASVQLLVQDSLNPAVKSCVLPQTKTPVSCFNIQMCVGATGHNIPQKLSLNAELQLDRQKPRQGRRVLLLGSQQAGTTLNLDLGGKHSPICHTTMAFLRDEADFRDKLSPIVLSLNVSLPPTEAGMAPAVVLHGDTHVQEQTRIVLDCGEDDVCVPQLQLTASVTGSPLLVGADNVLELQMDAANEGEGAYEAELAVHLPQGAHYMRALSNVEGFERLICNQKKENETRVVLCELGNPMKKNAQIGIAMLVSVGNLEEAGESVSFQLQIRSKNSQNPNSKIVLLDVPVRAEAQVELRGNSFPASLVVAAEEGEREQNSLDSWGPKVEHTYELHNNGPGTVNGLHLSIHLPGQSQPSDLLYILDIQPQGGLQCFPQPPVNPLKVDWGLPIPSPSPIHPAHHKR
# Chain of GP IIb/IIIa (P08514 891-1039 limits assumed): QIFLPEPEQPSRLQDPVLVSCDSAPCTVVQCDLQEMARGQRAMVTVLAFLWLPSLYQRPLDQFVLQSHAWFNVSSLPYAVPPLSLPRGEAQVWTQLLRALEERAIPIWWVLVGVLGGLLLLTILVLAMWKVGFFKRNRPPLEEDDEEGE
# Chain of GP IIb/IIIa (P05106 27-788): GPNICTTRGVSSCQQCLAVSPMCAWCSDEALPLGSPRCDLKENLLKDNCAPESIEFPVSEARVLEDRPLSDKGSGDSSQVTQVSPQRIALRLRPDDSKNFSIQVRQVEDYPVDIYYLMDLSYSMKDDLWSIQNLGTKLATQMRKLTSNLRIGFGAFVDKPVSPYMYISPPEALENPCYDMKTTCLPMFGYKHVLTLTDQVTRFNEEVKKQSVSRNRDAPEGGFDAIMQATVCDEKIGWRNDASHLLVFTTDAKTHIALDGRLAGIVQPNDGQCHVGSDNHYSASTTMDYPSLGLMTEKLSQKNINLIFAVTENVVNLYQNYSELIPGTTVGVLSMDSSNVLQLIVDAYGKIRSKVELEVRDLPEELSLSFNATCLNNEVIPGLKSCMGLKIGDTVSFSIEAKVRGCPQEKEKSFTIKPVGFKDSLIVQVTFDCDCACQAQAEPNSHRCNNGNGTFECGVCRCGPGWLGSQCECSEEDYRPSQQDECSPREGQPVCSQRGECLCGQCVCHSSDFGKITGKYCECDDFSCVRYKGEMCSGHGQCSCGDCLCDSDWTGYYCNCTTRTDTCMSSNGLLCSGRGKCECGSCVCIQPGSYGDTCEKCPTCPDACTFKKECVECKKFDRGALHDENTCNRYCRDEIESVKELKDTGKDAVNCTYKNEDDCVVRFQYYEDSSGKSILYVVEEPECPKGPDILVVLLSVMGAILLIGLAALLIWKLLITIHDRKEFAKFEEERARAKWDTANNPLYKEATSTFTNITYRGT
# Procedure: (§3) GP IIb/IIIa Antagonistic Activity and Human Platelet Aggregation Inhibitory Activity
# GP IIb/IIIa antagonistic activity was measured for the compounds according to the present invention. The measurement of the GP IIb/IIIa antagonistic activity was carried out according to the method described in Pharmacological Test 2 in WO 94/21599.
# [2] = target: T2, integrin αvβ3 (vitronectin receptor purified from the human placenta) (Homo sapiens, UniProt P05106+P06756); experiment: αvβ3 binding assay (vitronectin-vitronectin receptor binding assay); conditions: vitronectin binding to human placenta vitronectin receptor; read-out: integrin αvβ3 antagonistic activity, IC50 value
# T2 construct: a vitronectin receptor (protein content: 118 μg/ml) purified from the human placenta; from tissue; host or cells: human placenta
# T2 sequence (P06756 31-889 limits assumed): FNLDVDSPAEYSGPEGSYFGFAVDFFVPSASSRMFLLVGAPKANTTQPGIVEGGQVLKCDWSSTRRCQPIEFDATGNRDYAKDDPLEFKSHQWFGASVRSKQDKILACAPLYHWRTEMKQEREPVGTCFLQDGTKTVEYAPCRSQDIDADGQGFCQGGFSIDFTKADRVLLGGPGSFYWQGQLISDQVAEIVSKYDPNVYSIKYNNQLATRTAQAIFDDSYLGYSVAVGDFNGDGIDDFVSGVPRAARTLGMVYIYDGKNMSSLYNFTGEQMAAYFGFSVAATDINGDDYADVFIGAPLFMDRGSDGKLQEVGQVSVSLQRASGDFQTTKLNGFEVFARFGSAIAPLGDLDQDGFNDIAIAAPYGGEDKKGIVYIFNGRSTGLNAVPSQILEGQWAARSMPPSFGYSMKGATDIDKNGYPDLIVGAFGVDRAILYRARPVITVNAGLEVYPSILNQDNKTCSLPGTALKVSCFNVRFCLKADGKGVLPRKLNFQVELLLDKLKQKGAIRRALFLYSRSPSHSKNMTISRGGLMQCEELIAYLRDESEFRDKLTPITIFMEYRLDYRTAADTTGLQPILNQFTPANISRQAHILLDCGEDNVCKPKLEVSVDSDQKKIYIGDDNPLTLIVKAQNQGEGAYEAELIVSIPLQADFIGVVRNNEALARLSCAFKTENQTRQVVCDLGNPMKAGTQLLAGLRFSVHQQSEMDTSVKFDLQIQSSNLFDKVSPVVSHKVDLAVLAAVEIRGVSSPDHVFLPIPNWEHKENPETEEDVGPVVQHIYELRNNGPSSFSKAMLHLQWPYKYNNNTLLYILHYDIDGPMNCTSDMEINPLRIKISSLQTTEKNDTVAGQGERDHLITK
# T2 sequence (P06756 891-1048 limits assumed): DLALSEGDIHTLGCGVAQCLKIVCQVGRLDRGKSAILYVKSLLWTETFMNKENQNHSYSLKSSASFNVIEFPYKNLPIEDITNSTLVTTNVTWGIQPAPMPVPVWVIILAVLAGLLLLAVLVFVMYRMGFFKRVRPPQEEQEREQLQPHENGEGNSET
# T2 sequence (P05106 27-788): as the sequence (P05106 27-788) above
# Procedure: as §1, with “αvβ3” for “α5β1”, “activity” for “activity (lethality)”, “vitronectin-vitronectin” for “fibronectin-fibronectin”, “Jennings” for “Jennings,”
# Specifically, a vitronectin receptor (protein content: 118 μg/ml) purified from the human placenta in accordance with the method of Pytela et al. (R. Pytela, M. D. Pierschbacher, S. Argraves, S. Suzuki, and E. Ruoslahti, Method in Enzymology, 144, 475-489 (1987)) was diluted 50 times with TBS (20 mM Tris-HCl, 150 mM NaCl, 1 mM CaCl2, 1 mM MgCl2, pH 7.4), and distributed and coated on wells (50 μl/well) of a plate (Maxisorp, Nunc, 96 well Immuno Plate). The plate was then allowed to stand at 4° C. for 1 day, washed twice with TBS (200 μl/well), and then subjected to blocking with TBS (150 μl/well) containing 1% bovine serum albumin (SIGMA) at 4° C. overnight. After washing twice with TBS (200 μl/well), 50 μl of vitronectin (CALBIOCHEM) adjusted to 0.2 μg/ml by the addition of TBS (TBS-Tween) containing 0.01% Tween-20 was mixed with 50 μl of each test compound adjusted to each concentration in wells, and a reaction was allowed to proceed at room temperature for 4 hr. After the completion of the reaction, the wells were washed five times with TBS-Tween. A solution prepared by diluting anti-vitronectin rabbit antiserum (CHEMICON) 500 times with TBS-Tween was added as a primary antibody in an amount of 50 μl/well, and a reaction was allowed to proceed at room temperature for 1.5 hr. After washing five times with 200 μl/well of TBS-Tween, a peroxidase (POD)-labeled anti-rabbit IgG antibody solution (CAPPEL) diluted 500 times with TBS-Tween was added as a secondary antibody in an amount of 50 μl/well, and a reaction was allowed to proceed at room temperature for 1.5 hr. After washing five times with TBS-Tween (200 μl/well), ABTS (2,2′-azino-bis(3-ethylbenzthiazoline-6-sulfonic acid), SIGMA) was adjusted to 1 mg/ml by the addition of a ten-fold diluted POD-buffer (ZYMED), and added in an amount of 50 μl/well, and a reaction was allowed to proceed for 5 to 10 min. A 0.1 M citric acid buffer (pH 4.3) containing 0.05% NaN3 was added in an amount of 50 μl/well to stop the reaction, followed by the measurement of the absorbance at 415 nm with a microplate reader (MTP 32, Corona Electric) (reference: 675 nm). The total binding was defined as the absorbance after a reaction using 50 μl of TBS-Tween instead of the test compound, and the non-specific binding (100% inhibition) was defined as the absorbance after a reaction using 50 μl of TBS-Tween containing 2×10^−3 M RGDS. The inhibition was calculated by the following equation: [formula]
# as §2
# [3] = system: human platelet aggregation; experiment: Human platelet aggregation inhibitory activity (method of Pharmacological Test 1 in WO 94/21599); format: cell-based; conditions: human platelets, read-out: inhibition of human platelet aggregation, IC5. value
# Procedure: as §3
# Human platelet aggregation inhibitory activity was measured for the compounds according to the present invention. The measurement of the human platelet aggregation activity was carried out according to the method described in Pharmacological Test 1 in WO 94/21599.
SMILES,pIC50 [1],pIC50 (GP IIb/IIIa),pIC50 [2],pIC50 [3]
"O=C(NC[C@H](NS(=O)(=O)c1ccccc1)C(=O)O)c1ccc(N2CCC(NC3=NCCCN3)CC2)cc1 [Example 3, (2S)-Benzenesulfonylamino-3-[4-{4-(1,4,5,6-tetrahydropyrimidin-2-ylamino)piperidin-1-yl}benzoyl-amino]propionic acid]",5.80,–,–,–
"O=C(NC[C@H](NS(=O)(=O)c1ccccc1)C(=O)O)c1ccc(N2CCC(Nc3nc4ccccc4[nH]3)CC2)cc1 [Example 10, (2S)-Benzenesulfonylamino-3-[4-{4-(1H-benzimidazol-2-ylamino)piperidin-1-yl}benzoylamino]-propionic acid]",5.80,–,–,–
"O=C(N[C@@H](CNC(=O)c1ccc(N2CCC(Nc3nc4ccccc4[nH]3)CC2)cc1)C(=O)O)OCc1ccccc1 [Example 24, 3-[4-{4-(1H-Benzimidazol-2-ylamino)piperidin-1-yl}benzoylamino]-(2S)-{(benzyloxy-carbonyl)amino}propionic acid]",5.16,≥ 9.00,–,–
"CCCCS(=O)(=O)N[C@@H](CNC(=O)c1ccc(N2CCC(Nc3nc4ccccc4[nH]3)CC2)cc1)C(=O)O [Example 28, (2S)-Butane-1-sulfonylamino-3-[4-{4-(1H-benzimidazol-2-ylamino)piperidin-1-yl}benzoylamino]-propionic acid]",5.89,≥ 9.00,≥ 9.00,–
"O=C(NC[C@H](NS(=O)(=O)c1ccccc1)C(=O)O)c1ccc(N2CCC(NC3=NCCN3)CC2)cc1 [Example 40, (2S)-Benzenesulfonylamino-3-[4-{4-(4.5-dihydro-1H-imidazol-2-ylamino)piperidin-1-yl}benzoyl-amino]propionic acid]",–,≥ 9.00,–,≥ 7.05
"O=C(NC[C@H](NS(=O)(=O)c1ccccc1)C(=O)O)c1ccc(N2CCC(NC3=NCCCCN3)CC2)cc1 [Example 42, (2S)-Benzenesulfonylamino-3-[4-{4-(4,5,6,7-tetrahydro-1H-[1,3]diazepin-2-ylamino)piperidin-1-yl}-benzoylamino]propionic acid]",–,≥ 9.00,≥ 9.00,≥ 7.05
"CN(C1=NCCCN1)C1CCN(c2ccc(C(=O)NC[C@H](NS(=O)(=O)c3ccccc3)C(=O)O)cc2)CC1 [Example 45, (2S)-Benzenesulfonylamino-3-[4-[4-[{N-methyl-N-(1,4,5,6-tetrahydropyrimidin-2-yl)}amino]-piperidin-1-yl]benzoylamino]propionic acid]",–,≥ 9.00,–,≥ 7.05
"O=C(NC[C@H](NS(=O)(=O)c1ccccc1)C(=O)O)c1ccc(N2CCC(NC3=NCCN3)CC2)c(F)c1 [Example 54, (2S)-Benzenesulfonylamino-3-[3-fluoro-4-{4-(4,5-dihydro-1H-imidazol-2-ylamino)piperidin-1-yl}-benzoylamino]propionic acid]",–,≥ 9.00,≥ 9.00,≥ 7.05
"Nc1ccc(S(=O)(=O)N[C@@H](CNC(=O)c2ccc(N3CCC(NC4=NCCCN4)CC3)c(F)c2)C(=O)O)cc1 [Example 68, (2S)-(4-Aminobenzenesulfonyl)amino-3-[3-fluoro-4-{4-(1,4,5,6-tetrahydropyrimidin-2-ylamino)-piperidin-1-yl}benzoylamino]propionic acid]",4.94,≥ 9.00,≥ 9.00,–
